Measured values reported in the kinase profiling compilation of Christmann-Franck et al. (2016).

Legend:
Conditions in all cases: compound 10.0 µM
ACVRL1 (human) = ACVRL1 (human) (UniProt P37023)
AXL (human) = AXL (human) (UniProt P30530)
BMPR2 (human) = BMPR2 (human) (UniProt Q13873)
BRSK2 (human) = BRSK2 (human) (UniProt Q8IWQ3)
CASK (human) = CASK (human) (UniProt O14936)
CDK15 (human) = CDK15 (human) (UniProt Q96Q40)
CDK5 (human) = CDK5 (human) (UniProt Q00535)
CLK4 (human) = CLK4 (human) (UniProt Q9HAZ1)
CSNK1A1 (human) = CSNK1A1 (human) (UniProt P48729)
CSNK2A1 (human) = CSNK2A1 (human) (UniProt P68400)
Chain of CSNK2A1 (human) (P68400 whole entry, looked up): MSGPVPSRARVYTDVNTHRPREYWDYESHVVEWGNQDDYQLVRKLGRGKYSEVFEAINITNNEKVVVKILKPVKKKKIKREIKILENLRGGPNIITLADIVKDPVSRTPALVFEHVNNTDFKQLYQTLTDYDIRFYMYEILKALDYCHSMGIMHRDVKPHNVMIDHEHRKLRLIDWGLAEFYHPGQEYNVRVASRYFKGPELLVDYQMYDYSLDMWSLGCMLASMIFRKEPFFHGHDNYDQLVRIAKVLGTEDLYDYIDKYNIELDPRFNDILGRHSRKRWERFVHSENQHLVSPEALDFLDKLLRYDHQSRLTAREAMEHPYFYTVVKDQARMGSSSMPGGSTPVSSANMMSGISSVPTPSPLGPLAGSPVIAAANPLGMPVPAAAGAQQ

CSNK2A2 (human) = CSNK2A2 (human) (UniProt P19784)
Chain of CSNK2A2 (human) (P19784 whole entry, looked up): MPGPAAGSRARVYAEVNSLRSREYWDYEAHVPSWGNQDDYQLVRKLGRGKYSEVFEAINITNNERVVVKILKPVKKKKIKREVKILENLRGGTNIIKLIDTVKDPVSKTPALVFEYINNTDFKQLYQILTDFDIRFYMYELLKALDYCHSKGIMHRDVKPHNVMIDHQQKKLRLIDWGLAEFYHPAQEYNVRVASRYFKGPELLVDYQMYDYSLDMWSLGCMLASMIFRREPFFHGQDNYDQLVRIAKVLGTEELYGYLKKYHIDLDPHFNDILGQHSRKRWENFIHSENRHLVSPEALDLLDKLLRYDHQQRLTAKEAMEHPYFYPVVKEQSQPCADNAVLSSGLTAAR

DCLK2 (human) = DCLK2 (human) (UniProt Q8N568)
EIF2AK2 (human) = EIF2AK2 (human) (UniProt P19525)
EPHA1 (human) = EPHA1 (human) (UniProt P21709)
FLT3 (human) = FLT3 (human) (UniProt P36888)
GRK1 (human) = GRK1 (human) (UniProt Q15835)
Chain of GRK1 (human) (Q15835 whole entry, looked up): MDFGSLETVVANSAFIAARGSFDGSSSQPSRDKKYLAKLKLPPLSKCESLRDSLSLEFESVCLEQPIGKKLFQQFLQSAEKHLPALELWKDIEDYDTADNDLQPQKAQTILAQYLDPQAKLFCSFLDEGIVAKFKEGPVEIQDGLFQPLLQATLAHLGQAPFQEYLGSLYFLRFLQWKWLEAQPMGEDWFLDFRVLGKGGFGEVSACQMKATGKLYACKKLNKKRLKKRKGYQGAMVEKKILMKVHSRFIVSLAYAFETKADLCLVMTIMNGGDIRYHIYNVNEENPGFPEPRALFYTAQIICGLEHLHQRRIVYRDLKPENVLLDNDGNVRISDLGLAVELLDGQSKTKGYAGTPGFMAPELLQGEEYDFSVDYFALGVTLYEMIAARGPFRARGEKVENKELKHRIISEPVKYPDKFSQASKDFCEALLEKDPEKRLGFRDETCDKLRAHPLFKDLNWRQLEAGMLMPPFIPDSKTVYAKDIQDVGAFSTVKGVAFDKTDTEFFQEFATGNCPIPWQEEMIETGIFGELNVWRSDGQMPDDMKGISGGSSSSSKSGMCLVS

GRK4 (human) = GRK4 (human) (UniProt P32298)
IRAK3 (human) = IRAK3 (human) (UniProt Q9Y616)
MAP2K4 (human) = MAP2K4 (human) (UniProt P45985)
MAP3K3 (human) = MAP3K3 (human) (UniProt Q99759)
Chain of MAP3K3 (human) (Q99759 whole entry, looked up): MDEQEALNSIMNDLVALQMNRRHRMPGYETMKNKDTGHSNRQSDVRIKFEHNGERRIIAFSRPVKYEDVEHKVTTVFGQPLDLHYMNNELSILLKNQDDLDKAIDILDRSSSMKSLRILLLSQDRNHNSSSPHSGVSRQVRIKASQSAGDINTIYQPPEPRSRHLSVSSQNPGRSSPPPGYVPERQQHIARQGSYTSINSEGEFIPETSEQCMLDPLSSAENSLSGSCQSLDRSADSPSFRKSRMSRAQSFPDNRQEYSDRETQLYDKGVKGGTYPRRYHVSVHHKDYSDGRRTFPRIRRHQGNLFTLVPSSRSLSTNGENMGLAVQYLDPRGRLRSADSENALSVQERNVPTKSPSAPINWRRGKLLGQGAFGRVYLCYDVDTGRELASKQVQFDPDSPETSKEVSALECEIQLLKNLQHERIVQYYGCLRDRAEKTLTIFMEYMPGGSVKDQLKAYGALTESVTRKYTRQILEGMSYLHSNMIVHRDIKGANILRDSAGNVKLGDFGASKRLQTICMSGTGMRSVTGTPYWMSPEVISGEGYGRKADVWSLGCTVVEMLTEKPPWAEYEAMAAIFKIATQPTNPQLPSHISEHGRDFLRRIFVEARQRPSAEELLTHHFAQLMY

MAP3K6 (human) = MAP3K6 (human) (UniProt O95382)
MAPK11 (human) = MAPK11 (human) (UniProt Q15759)
Chain of MAPK11 (human) (Q15759 whole entry, looked up): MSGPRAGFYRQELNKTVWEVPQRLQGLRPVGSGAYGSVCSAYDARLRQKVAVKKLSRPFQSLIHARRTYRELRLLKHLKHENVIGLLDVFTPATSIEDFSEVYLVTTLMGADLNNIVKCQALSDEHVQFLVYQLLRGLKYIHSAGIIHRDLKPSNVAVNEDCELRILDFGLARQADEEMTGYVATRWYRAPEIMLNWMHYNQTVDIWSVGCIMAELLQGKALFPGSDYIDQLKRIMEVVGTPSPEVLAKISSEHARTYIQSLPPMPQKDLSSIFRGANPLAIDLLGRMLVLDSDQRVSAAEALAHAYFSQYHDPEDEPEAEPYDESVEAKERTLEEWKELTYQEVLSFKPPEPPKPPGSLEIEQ

MARK3 (human) = MARK3 (human) (UniProt P27448)
MUSK (human) = MUSK (human) (UniProt O15146)
NEK9 (human) = NEK9 (human) (UniProt Q8TD19)
Chain of NEK9 (human) (Q8TD19 whole entry, looked up): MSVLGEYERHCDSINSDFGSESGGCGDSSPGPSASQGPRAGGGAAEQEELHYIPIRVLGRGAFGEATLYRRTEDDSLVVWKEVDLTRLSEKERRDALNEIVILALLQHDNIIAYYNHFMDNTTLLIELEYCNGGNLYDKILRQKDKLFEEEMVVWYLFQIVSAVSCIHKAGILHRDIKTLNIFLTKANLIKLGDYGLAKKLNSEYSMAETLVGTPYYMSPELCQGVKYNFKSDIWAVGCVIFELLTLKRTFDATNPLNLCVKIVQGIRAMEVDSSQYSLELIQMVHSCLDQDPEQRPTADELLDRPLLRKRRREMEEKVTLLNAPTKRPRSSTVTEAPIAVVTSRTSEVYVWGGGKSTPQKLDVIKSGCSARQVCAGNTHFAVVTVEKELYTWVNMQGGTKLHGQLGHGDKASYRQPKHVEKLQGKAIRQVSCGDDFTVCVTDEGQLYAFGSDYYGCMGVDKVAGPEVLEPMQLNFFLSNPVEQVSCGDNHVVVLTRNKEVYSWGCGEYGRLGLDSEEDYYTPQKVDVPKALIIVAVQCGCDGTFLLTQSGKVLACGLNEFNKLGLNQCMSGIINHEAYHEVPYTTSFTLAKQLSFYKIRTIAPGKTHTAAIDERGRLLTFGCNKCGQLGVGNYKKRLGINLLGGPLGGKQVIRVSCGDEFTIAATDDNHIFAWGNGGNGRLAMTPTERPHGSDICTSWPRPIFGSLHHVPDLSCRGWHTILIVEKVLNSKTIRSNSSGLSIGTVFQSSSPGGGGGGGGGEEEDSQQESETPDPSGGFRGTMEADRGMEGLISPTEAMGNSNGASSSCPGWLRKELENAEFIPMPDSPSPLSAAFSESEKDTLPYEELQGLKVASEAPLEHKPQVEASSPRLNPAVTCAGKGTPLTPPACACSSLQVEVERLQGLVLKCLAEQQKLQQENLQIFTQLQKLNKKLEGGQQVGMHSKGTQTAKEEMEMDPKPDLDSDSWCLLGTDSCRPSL

NIM1 (human) = NIM1 (human) (UniProt Q8IY84)
PAK3 (human) = PAK3 (human) (UniProt O75914)
Chain of PAK3 (human) (O75914 whole entry, looked up): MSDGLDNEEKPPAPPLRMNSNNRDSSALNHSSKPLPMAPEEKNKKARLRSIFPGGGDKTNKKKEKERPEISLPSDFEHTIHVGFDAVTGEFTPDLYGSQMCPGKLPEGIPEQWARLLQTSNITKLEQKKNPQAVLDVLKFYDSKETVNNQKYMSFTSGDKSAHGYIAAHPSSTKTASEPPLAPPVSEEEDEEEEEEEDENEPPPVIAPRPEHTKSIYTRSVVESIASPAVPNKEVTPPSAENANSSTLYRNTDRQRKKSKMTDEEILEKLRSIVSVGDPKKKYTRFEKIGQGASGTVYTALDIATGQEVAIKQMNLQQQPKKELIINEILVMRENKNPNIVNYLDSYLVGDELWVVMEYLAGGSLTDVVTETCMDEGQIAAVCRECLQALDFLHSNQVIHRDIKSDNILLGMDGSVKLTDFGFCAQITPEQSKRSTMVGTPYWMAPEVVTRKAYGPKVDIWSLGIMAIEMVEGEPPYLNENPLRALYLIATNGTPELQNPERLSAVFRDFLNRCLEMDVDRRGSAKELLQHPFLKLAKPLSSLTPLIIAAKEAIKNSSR

PAK4 (human) = PAK4 (human) (UniProt O96013)
PIM1 (human) = PIM1 (human) (UniProt P11309)
PIP4K2C (human) = PIP4K2C (human) (UniProt Q8TBX8)
PIP5K1C (human) = PIP5K1C (human) (UniProt O60331)
PRKACB (human) = PRKACB (human) (UniProt P22694)
PTK2B (human) = PTK2B (human) (UniProt Q14289)
[1] = test system: RET (human), P07949 [V804L]
RIOK3 (human) = RIOK3 (human) (UniProt O14730)
SIK1 (human) = SIK1 (human) (UniProt P57059)
STK35 (human) = STK35 (human) (UniProt Q8TDR2)
SYK (human) = SYK (human) (UniProt P43405)
TGFBR2 (human) = TGFBR2 (human) (UniProt P37173)
TLK2 (human) = TLK2 (human) (UniProt Q86UE8)
TNK1 (human) = TNK1 (human) (UniProt Q13470)
[2] = target: TYK2 JH1 catalytic (human) (UniProt P29597)

Chain of BRSK2 (human) (Q8IWQ3 whole entry, looked up): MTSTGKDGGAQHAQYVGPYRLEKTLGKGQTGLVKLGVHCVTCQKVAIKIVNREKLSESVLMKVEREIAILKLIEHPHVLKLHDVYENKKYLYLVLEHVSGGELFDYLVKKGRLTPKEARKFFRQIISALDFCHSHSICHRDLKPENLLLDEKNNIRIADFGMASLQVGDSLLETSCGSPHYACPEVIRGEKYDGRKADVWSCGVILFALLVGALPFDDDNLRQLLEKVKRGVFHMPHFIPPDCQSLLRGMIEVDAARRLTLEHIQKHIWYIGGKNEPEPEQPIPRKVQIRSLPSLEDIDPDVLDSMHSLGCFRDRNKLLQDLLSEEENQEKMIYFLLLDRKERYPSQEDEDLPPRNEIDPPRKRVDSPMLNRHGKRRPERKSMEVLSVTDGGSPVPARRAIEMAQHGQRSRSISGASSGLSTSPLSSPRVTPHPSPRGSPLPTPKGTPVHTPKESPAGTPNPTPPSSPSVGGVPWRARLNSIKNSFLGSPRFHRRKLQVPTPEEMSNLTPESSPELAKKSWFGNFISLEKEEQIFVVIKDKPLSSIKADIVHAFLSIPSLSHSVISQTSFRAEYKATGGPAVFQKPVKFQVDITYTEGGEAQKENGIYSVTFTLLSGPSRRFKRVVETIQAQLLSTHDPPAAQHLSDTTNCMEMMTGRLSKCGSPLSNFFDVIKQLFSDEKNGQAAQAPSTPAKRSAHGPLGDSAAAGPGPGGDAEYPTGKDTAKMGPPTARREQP
Chain of CDK15 (human) (Q96Q40 whole entry, looked up): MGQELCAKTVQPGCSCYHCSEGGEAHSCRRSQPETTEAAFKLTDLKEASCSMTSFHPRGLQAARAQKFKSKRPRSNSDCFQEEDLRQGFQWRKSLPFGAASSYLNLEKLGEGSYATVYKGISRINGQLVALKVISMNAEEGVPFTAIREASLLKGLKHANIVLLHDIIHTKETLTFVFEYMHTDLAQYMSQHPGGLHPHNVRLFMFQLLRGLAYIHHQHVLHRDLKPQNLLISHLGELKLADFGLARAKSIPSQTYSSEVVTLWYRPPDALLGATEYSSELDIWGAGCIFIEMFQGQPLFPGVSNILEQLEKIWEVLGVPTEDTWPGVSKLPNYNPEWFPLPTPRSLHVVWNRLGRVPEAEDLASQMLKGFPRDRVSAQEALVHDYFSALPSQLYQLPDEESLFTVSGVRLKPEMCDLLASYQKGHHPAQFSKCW

With `CNC(=O)c1cc(Oc2ccc(NC(=O)Nc3ccc(Cl)c(C(F)(F)F)c3)cc2)ccn1` the per cent of control (ACVRL1 (human)) was 100%, the per cent of control (AXL (human)) was 5.4% and the per cent of control (BMPR2 (human)) was 100%. For the same molecule, the per cent of control (BRSK2 (human)) was 98%, the per cent of control (CASK (human)) was 100% and the per cent of control (CDK15 (human)) was 7.4%. The per cent of control (CDK5 (human)) was 22%, the per cent of control (CLK4 (human)) was 30% and the per cent of control (CSNK1A1 (human)) was 100%. The per cent of control (CSNK2A1 (human)) was 100%, the per cent of control (CSNK2A2 (human)) was 82% and the per cent of control (DCLK2 (human)) was 95%. The per cent of control (EIF2AK2 (human)) was 74%, the per cent of control (EPHA1 (human)) was 11% and the per cent of control (FLT3 (human)) was 0.05%. The per cent of control (GRK1 (human)) was 100%, the per cent of control (GRK4 (human)) was 99% and the per cent of control (IRAK3 (human)) was 76%. For the same molecule, the per cent of control (MAP2K4 (human)) was 85%, the per cent of control (MAP3K3 (human)) was 97% and the per cent of control (MAP3K6 (human)) was 72%. The per cent of control (MAPK11 (human)) was 0.05%, the per cent of control (MARK3 (human)) was 86% and the per cent of control (MUSK (human)) was 0%. The per cent of control (NEK9 (human)) was 48%, the per cent of control (NIM1 (human)) was 100% and the per cent of control (PAK3 (human)) was 56%. The per cent of control (PAK4 (human)) was 100%, the per cent of control (PIM1 (human)) was 100% and the per cent of control (PIP4K2C (human)) was 34%. For the same molecule, the per cent of control (PIP5K1C (human)) was 79%, the per cent of control (PRKACB (human)) was 100% and the per cent of control (PTK2B (human)) was 99%. For the same molecule, the per cent of control [1] was 0%, the per cent of control (RIOK3 (human)) was 88% and the per cent of control (SIK1 (human)) was 79%. For the same molecule, the per cent of control (STK35 (human)) was 7.8%, the per cent of control (SYK (human)) was 77% and the per cent of control (TGFBR2 (human)) was 25%. For the same molecule, the per cent of control (TLK2 (human)) was 99%, the per cent of control (TNK1 (human)) was 14% and the per cent of control [2] was 100%.
In the case of `CNC(=O)c1cc(Oc2ccc(NC(=O)Nc3ccc(Cl)c(C(F)(F)F)c3)cc2)cc[n+]1[O-]`, the per cent of control (ACVRL1 (human)) is reported as 96%, the per cent of control (AXL (human)) is reported as 1.8% and the per cent of control (BMPR2 (human)) is reported as 98%. For the same molecule, the per cent of control (BRSK2 (human)) was 100%, the per cent of control (CASK (human)) was 100% and the per cent of control (CDK15 (human)) was 9.6%. For the same molecule, the per cent of control (CDK5 (human)) was 12%, the per cent of control (CLK4 (human)) was 47% and the per cent of control (CSNK1A1 (human)) was 100%. For the same molecule, the per cent of control (CSNK2A1 (human)) was 94%, the per cent of control (CSNK2A2 (human)) was 70% and the per cent of control (DCLK2 (human)) was 87%. It also gave a per cent of control (EIF2AK2 (human)) of 58%, a per cent of control (EPHA1 (human)) of 18% and a per cent of control (FLT3 (human)) of 0.1%. For the same molecule, the per cent of control (GRK1 (human)) was 100%, the per cent of control (GRK4 (human)) was 100% and the per cent of control (IRAK3 (human)) was 91%. The per cent of control (MAP2K4 (human)) was 60%, the per cent of control (MAP3K3 (human)) was 96% and the per cent of control (MAP3K6 (human)) was 64%. For the same molecule, the per cent of control (MAPK11 (human)) was 0%, the per cent of control (MARK3 (human)) was 86% and the per cent of control (MUSK (human)) was 0.2%. For the same molecule, the per cent of control (NEK9 (human)) was 35%, the per cent of control (NIM1 (human)) was 100% and the per cent of control (PAK3 (human)) was 43%. It also gave a per cent of control (PAK4 (human)) of 100%, a per cent of control (PIM1 (human)) of 100% and a per cent of control (PIP4K2C (human)) of 16%. It also gave a per cent of control (PIP5K1C (human)) of 66%, a per cent of control (PRKACB (human)) of 98% and a per cent of control (PTK2B (human)) of 91%. The per cent of control [1] was 0%, the per cent of control (RIOK3 (human)) was 73% and the per cent of control (SIK1 (human)) was 66%. It also gave a per cent of control (STK35 (human)) of 40%, a per cent of control (SYK (human)) of 89% and a per cent of control (TGFBR2 (human)) of 3.1%. For the same molecule, the per cent of control (TLK2 (human)) was 100%, the per cent of control (TNK1 (human)) was 6.6% and the per cent of control [2] was 100%.
